In ChEMBL document CHEMBL5252609, “Design, synthesis, and antitumor evaluation of morpholine substituted bisnaphthalimides as DNA targeting agents” (Bioorg Med Chem Lett, 2023):

Tests used:
CNE-2 [1] = test: Induction of apoptosis in human CNE-2 cells assessed as early apoptotic cells at 1 uM measured after 24 hrs by annexin-V-FITC and PI staining based flow cytometry analysis (reference value: 0.439%); type: functional
MGC-803 [2] = test: Toxicity in nude mouse xenografted with human MGC-803 cells assessed as morphological changes in liver at 8 mg/kg, ip administrated every other day for 21 days; type: functional, organism-based; conditions: time 21.0 day
MGC-803 [3] = test: Antiproliferative activity against human MGC-803 cells assessed as cell growth inhibition by MTT assay; type: functional, cell-based
CNE-2 [4] = test: Antiproliferative activity against human CNE-2 cells assessed as cell growth inhibition by MTT assay; type: functional, cell-based
MGC-803 [5] = test: Antitumor activity against human MGC-803 cells xenografted in nude mouse assessed as reduction in tumor volume growth rate at 4 mg/kg, ip administrated every other day for 21 days relative to control; type: functional; set-up: scale not given: the % may be the effect or the level left; conditions: time 21 day
CNE-2 [6] = test: Induction of cell cycle arrest in human CNE-2 cells assessed as accumulation of cells at S phase at 1 uM measured after 48 hrs by flow cytometry analysis (Rvb= 19.83%); type: functional
CNE-2 [7] = test: Downregulation of CDK2 level in human CNE-2 cells measured after 48 hrs by Western blot analysis; type: functional, cell-based; conditions: dose <= 2.0 µM
CNE-2 [8] = test: Induction of apoptosis in human CNE-2 cells assessed as necrotic cells at 0.5 uM measured after 24 hrs by annexin-V-FITC and PI staining based flow cytometry analysis (reference value: 0.959%); type: functional
[9] = Toxicity in nude mouse xenografted with human MGC-803 cells assessed as effect on body weight at 4 mg/kg, ip administrated every other day for 21 days; type: organism-based; conditions: in vivo, 504 h, time 21 day
CNE-2 [10] = test: Induction of cell cycle arrest in human CNE-2 cells assessed as accumulation of cells at G1 phase at 1 uM measured after 48 hrs by flow cytometry analysis (Rvb= 73.18%); type: functional
CNE-2 [11] = test: Induction of apoptosis in human CNE-2 cells assessed as viable cells at 1 uM measured after 24 hrs by annexin-V-FITC and PI staining based flow cytometry analysis (reference value: 94.8%); type: functional; conditions: read-out: Activity
T-24 = test: Antiproliferative activity against human T24 cells assessed as cell growth inhibition by MTT assay; type: functional, cell-based
MGC-803 [12] = test: Toxicity in nude mouse xenografted with human MGC-803 cells assessed as morphological changes in kidney at 8 mg/kg, ip administrated every other day for 21 days; type: functional, organism-based; conditions: time 21.0 day
MGC-803 [13] = test: Toxicity in nude mouse xenografted with human MGC-803 cells assessed as morphological changes in spleen at 8 mg/kg, ip administrated every other day for 21 days; type: functional, organism-based; conditions: time 21.0 day
MGC-803 [14] = test: Toxicity in nude mouse xenografted with human MGC-803 cells assessed as morphological changes in lung at 8 mg/kg, ip administrated every other day for 21 days; type: functional, organism-based; conditions: time 21.0 day
CNE-2 [15] = test: Induction of cell cycle arrest in human CNE-2 cells assessed as accumulation of cells at S phase measured after 48 hrs by flow cytometry analysis; type: functional, cell-based; conditions: dose 0.5-2 µM
[16] = Toxicity in nude mouse xenografted with human MGC-803 cells assessed as effect on body weight at 4 mg/kg, ip administrated every other day measured at 9 to 14 days; type: organism-based; conditions: in vivo, time 9-14 day
MGC-803 [17] = test: Toxicity in nude mouse xenografted with human MGC-803 cells assessed as morphological changes in heart at 8 mg/kg, ip administrated every other day for 21 days; type: functional, organism-based; conditions: time 21.0 day

Row | SMILES | Activity (CNE-2 [1]) [%] | Activity (MGC-803 [2]) | IC50 (MGC-803 [3]) [nM] | IC50 (CNE-2 [4]) [nM] | Activity (MGC-803 [5]) [%] | Activity (CNE-2 [6]) [%] | Activity (CNE-2 [7]) | Activity (CNE-2 [8]) [%] | Activity [9] | Activity (CNE-2 [10]) [%] | viability at 1 µM (CNE-2 [11]) [%] | IC50 (T-24) [nM] | Activity (MGC-803 [12]) | Activity (MGC-803 [13]) | Activity (MGC-803 [14]) | Activity (CNE-2 [15]) | Activity [16] | Activity (MGC-803 [17])
1 | CN(C)CCN1C(=O)c2cccc3c(N4CCOCC4)c([N+](=O)[O-])cc(c23)C1=O | 3.01 | Toxic | 1560 | 1480 | 59.9 | 18.12 | Dose-Dependent Effect | 2.12 | Toxic | 69.25 | 82.9 | 1540 | – | – | – | – | – | –
2 | O=C1c2cccc3c(N4CCOCC4)c([N+](=O)[O-])cc(c23)C(=O)N1CCNCCN1C(=O)c2cccc3c(N4CCOCC4)c([N+](=O)[O-])cc(c23)C1=O | 2.19 | Toxic | 90 | 410 | 49.7 | 31.13 | Dose-Dependent Effect | 7.04 | – | 66.18 | 83.4 | 1240 | Not toxic | Not toxic | Not toxic | Dose-Dependent Effect | Non-Toxic | Not toxic
